In patent US20110184018A1, “METHOD FOR TREATING PERIPHERAL NEUROPATHIC PAIN” (LOHOCLA RESEARCH CORPORATION, priority 2005, published 2011):
pKd, pKi: −log10 of the molar value.

What was measured:
CB1 receptor = target: T1, CB1 receptor (Homo sapiens, UniProt P21554); assay: cAMP accumulation in HEK293 cells transfected with AC5, D1AR, CB1R; assay type: cell-based
T1 construct: expressed in transfected cells; host or cells: HEK293 cells (ATCC), calcium phosphate transfection
Method: HEK293 cells were obtained from American Type Culture Collection (Manassas, Va.). Cells were cultured in 225 mL flasks containing 39 mL of MEM containing 10% fetal bovine serum, penicillin (50 μg/mL), streptomycin (50 μg/mL), and neomycin (100 μg/mL). The flasks were maintained in a humidified atmosphere of 95% air and 5% CO2 at about 37° C. Transfection was performed by the method of DNA precipitation with calcium phosphate 1 day after HEK 293 cells were transferred to small flasks (75 mL) at the density of approximately 60 to 80% confluence. Plasmid DNA containing AC5 or AC7 cDNA (11.5 μg), plasmid DNA carrying the human D1A dopamine receptor cDNA (3 μg) and CB1 receptor cDNA (3 μg), and pCMS-EGFP (1 μg) were used for each small flask, which also contained 13 mL of the culture medium. The amount of DNA per flask was adjusted to a total of 26 μg using vector DNA. Transfection efficiency was routinely monitored by observing the expression of enhanced green fluorescent protein (GFP) by an epifluorescence microscope equipped with a filter set (excitation, 480/40 nm; emission, 535/50 nm) and a dichroic mirror (T89002bs; Chroma Technology, Rockingham, Vt.). After transfection, cells were harvested and transferred into 24-well culture plates. The transfected cells were cultured for 1 to 2 days before the cAMP accumulation experiments were carried out.
After labeling and intracellular ATP pool with 3.0 μCi/mL of [2,8-^3H]adenine, cells were incubated in DMEM (0.5 mL/well) without phenol red, buffered to pH 7.1 with 20 mM of 4-(2-hydroxyethyl)-1-piperazineethanesulfonic acid (HEPES) for 30 minutes at 37° C.
To determine the effect of the DCUK-OEt or other compounds on the function of the CB1 receptor, the cells were treated with the phosphodiesterase inhibitor, IBMX (500 μM), for 10 minutes at 37° C., followed by the addition of D1A receptor agonist, dopamine (DA) (1 μM), in the presence of a known CB1 agonist or agonist, plus a CB1 antagonist for 5 minutes. The following agonist and antagonist were used: CB1 receptor agonist, ACEA (10 μM); CB1 receptor antagonist, AM251 (10 μM). In additional reactions, the addition of DA was accompanied by addition of DCUK-OEt (10 μM) or DCUK-OEt together with AM251 (10 μM). In a final set of reactions DCUK-OEt was added with ACEA (10 μM), to assess whether DCUK-OEt acted like a CB1 receptor antagonist. The reactions were terminated by adding 50 μL of 100% (w/v) tricholoroacetic acid. ATP and cAMP were separated through Dowex 50 and neutral alumina columns as is known in the art, and quantified by liquid scintillation counting. [α-^32P]ATP and 8-[^14C]cAMP were added as internal standards to monitor the recovery of ATP and cAMP through column chromatography. Conversion of [^3H] ATP into [^3H]cAMP was calculated as follows: [^3H]cAMP (%)=[^3H]cAMP (cpm)/([^3H]ATP (cpm)+[^3H]cAMP (cpm))·100. [^3H]cAMP (%) values obtained from cells which underwent only the 10-minute IBMX incubation period before the addition of trichloroacetic acid, were used as blanks and these values were subtracted from the values obtained from cells which underwent the 1-minute incubation period with DA in the presence or absence of other agonists/antagonists. Each condition was assayed in triplicate and the whole experimental procedure was repeated 4 times. The ratio of cAMP accumulation was calculated for all treatment groups versus DA treatment group (100%) and the values were averaged among the four batches of experiments.

C57BL/6 mice = assay: Elevated-plus maze (anxiolytic effects); assay type: in vivo, mouse; conditions: i.p., about 60 minutes before testing
Method: In Panel A, mice were administered (i.p.) the indicated doses of DCUK-OEt about 60 minutes before behavioral testing on the elevated-plus maze. The number of times entered and the time spent in the open arms of the plus-maze were recorded. In Panel B, groups of mice were administered (i.p.) 50 mg/kg DCUK-OEt in an injection vehicle (5% TWEEN 80/0.5% methylcellulose) and tested at the indicated times with comparison to mice injected with vehicle alone. In both panels, mice treated with vehicle alone (i.e., absent the DCUKA compound) were tested 60 minutes after injection of vehicle. A greater percent of time spent in the open arms indicates an anxiolytic action of the drug. Significant differences in the percent time spent on the open arms of the maze are evident at doses as low as 25mg/kg. […]
The anxiolytic effect of the DCUK-OMe was tested in C57BL/6 mice with an elevated-plus maze apparatus. […] A trained observer blind to the treatment conditions scored the number of entries into open arms and the number of entries into closed arms over a 5-minutes period. […] The percentage of open arm entries (open arm entries/total arm entries) was calculated for each animal and used as a measure of the anxiolytic/anxiogenic effects of drug treatment. In addition, the total number of entries made into the […] was recorded as a measure of drug effects on locomotor activity. […]

[1] = target: rat brain type IIA Na+ channel (Nav1.2) (Rattus norvegicus, UniProt P04775); assay: Whole-cell patch clamp recordings of Na+ currents in CNaIIA-1 cells; assay type: cell-based; conditions: fit of shift of inactivation curve
Sequence of rat brain type IIA Na+ channel (Nav1.2) (P04775 whole entry): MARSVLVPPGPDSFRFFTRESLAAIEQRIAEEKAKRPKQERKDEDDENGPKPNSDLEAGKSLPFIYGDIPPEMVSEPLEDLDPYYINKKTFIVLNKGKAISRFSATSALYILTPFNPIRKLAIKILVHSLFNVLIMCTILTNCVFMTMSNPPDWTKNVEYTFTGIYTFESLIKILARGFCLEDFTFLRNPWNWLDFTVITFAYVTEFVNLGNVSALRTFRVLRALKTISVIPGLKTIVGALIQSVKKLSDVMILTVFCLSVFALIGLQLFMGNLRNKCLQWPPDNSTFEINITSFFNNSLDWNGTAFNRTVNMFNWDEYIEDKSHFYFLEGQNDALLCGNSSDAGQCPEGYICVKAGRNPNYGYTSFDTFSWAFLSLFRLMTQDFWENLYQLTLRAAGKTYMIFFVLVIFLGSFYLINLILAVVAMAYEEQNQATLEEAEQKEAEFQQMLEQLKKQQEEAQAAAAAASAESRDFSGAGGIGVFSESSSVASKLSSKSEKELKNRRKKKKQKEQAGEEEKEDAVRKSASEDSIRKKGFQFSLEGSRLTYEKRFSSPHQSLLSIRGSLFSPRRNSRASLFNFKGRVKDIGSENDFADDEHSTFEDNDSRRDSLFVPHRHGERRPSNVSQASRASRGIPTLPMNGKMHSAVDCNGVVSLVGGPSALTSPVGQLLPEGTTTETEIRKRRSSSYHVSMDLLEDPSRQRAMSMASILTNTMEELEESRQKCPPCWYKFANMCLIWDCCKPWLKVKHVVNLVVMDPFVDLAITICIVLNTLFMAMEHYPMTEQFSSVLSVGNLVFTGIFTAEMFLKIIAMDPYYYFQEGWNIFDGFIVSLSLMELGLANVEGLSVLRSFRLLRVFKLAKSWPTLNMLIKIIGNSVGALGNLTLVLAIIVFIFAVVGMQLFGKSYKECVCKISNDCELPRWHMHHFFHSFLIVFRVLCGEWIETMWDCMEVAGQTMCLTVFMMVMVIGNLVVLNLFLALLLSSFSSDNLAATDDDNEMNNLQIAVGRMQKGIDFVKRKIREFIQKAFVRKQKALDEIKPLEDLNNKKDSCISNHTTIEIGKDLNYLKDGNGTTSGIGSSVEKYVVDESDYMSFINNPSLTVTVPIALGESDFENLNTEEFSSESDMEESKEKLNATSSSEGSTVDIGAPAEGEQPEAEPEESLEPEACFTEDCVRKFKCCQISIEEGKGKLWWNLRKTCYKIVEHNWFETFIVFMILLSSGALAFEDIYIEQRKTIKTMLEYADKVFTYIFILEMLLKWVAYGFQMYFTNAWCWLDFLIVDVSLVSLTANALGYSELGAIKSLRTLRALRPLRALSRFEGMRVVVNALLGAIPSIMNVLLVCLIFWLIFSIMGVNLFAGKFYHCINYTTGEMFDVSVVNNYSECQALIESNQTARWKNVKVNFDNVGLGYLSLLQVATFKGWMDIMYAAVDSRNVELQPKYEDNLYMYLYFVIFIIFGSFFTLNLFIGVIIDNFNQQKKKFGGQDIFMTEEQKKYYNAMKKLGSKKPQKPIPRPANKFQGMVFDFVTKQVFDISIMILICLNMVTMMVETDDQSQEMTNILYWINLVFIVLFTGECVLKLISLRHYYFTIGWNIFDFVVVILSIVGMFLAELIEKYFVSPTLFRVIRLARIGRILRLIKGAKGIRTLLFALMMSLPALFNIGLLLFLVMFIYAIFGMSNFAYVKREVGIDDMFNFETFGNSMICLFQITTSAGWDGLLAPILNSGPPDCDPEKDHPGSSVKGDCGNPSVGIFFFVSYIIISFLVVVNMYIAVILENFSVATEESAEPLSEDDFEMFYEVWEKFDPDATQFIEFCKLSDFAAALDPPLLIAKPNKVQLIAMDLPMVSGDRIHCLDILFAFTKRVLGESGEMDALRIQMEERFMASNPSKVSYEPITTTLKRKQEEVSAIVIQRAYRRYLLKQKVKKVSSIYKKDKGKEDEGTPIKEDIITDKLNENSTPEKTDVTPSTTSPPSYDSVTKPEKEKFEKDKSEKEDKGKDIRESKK

T1 sequence (P21554 whole entry): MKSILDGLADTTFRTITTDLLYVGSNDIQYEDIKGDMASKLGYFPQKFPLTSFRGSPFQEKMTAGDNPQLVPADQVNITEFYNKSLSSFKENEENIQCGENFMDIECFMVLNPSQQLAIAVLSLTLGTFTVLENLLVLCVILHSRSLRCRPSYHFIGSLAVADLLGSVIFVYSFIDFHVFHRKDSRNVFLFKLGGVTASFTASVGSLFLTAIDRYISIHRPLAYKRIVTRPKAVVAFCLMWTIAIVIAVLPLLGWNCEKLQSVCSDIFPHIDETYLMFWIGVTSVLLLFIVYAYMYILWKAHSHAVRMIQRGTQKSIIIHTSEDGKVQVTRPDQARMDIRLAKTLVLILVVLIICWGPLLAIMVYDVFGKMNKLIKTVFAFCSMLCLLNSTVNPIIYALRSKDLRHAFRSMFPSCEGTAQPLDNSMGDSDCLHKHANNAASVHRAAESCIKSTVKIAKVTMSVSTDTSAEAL

Compound | effect on DA stimulated cAMP production with AM251 added (CB1 receptor; AM251 10 μM) | reversal of the effects of ACEA (CB1 receptor; added with ACEA 10 μM) | effect on DA stimulated cAMP production (CB1 receptor; dopamine 1 μM, compound 10 μM) | lowest dose with significant differences in percent time spent on the open arms (C57BL/6 mice) [mg/kg] | pKi ([1]; read-out: KI, dissociation constant for inactivated states) | pKd ([1]; read-out: KR, dissociation constant for the resting state)
CCOC(=O)c1cc(NC(=O)N(c2ccccc2)c2ccccc2)c2c(Cl)cc(Cl)cc2n1 [DCUK-OEt, N,N-diphenyl-4-ureido-5,7-dichloro-2-carboxy quinoline ethyl ester] | reversed by AM251 | did not reverse the effects of ACEA | reduced DA stimulated cAMP production | 25 | – | –
O=C(O)c1cc(NC(=O)N(c2ccccc2)c2ccccc2)c2c(Cl)cc(Cl)cc2n1 [DCUKA, N,N-diphenyl-4-ureido-5,7-dichloro-2-carboxyquinoline] | – | – | – | – | 5.01 | 3.61
